Data published in ChEMBL document CHEMBL5120927, “LEGO-Lipophosphonoxins: A Novel Approach in Designing Membrane Targeting Antimicrobials” (J Med Chem, 2022).
Converted amounts (≈) assume the structure as drawn.

Key:
Staphylococcus aureus [1] = experiment: Antibacterial activity against wild type Staphylococcus aureus 4502/A assessed as reduction in microbial growth incubated for 24 hrs by microdilution assay; assay type: functional
Staphylococcus aureus [2] = experiment: Antibacterial activity against wild type Staphylococcus aureus 78/CF assessed as reduction in microbial growth incubated for 24 hrs by microdilution assay; assay type: functional
Staphylococcus aureus [3] = experiment: Antibacterial activity against wild type Staphylococcus aureus 4515/A assessed as reduction in microbial growth incubated for 24 hrs by microdilution assay; assay type: functional
Staphylococcus aureus [4] = experiment: Antibacterial activity against wild type Staphylococcus aureus 4904/C assessed as reduction in microbial growth incubated for 24 hrs by microdilution assay; assay type: functional
Staphylococcus aureus [5] = experiment: Antibacterial activity against wild type Staphylococcus aureus 4504/A assessed as reduction in microbial growth incubated for 24 hrs by microdilution assay; assay type: functional
Staphylococcus aureus [6] = experiment: Antibacterial activity against wild type Staphylococcus aureus 4557/A assessed as reduction in microbial growth incubated for 24 hrs by microdilution assay; assay type: functional
Staphylococcus aureus [7] = experiment: microbe, parasite or virus in culture; conditions: 4880/C, 24 h
Description: Antibacterial activity against wild type Staphylococcus aureus 4880/C assessed as reduction in microbial growth incubated for 24 hrs by microdilution assay

Staphylococcus aureus [8] = experiment: Antibacterial activity against […] Staphylococcus aureus 4463/A assessed as reduction in microbial growth incubated for 24 hrs by microdilution assay; assay type: functional
Staphylococcus aureus [9] = experiment: Antibacterial activity against wild type Staphylococcus aureus 77/CF assessed as reduction in microbial growth incubated for 24 hrs by microdilution assay; assay type: functional
Staphylococcus aureus [10] = experiment: Antibacterial activity against wild type Staphylococcus aureus 4566/A assessed as reduction in microbial growth incubated for 24 hrs by microdilution assay; assay type: functional
Staphylococcus aureus [11] = experiment: Antibacterial activity against wild type Staphylococcus aureus 4883/C assessed as reduction in microbial growth incubated for 24 hrs by microdilution assay; assay type: functional
Staphylococcus aureus [12] = experiment: Antibacterial activity against wild type Staphylococcus aureus 4740/B assessed as reduction in microbial growth incubated for 24 hrs by microdilution assay; assay type: functional
Staphylococcus aureus [13] = experiment: Antibacterial activity against […] Staphylococcus aureus 4460/A assessed as reduction in microbial growth incubated for 24 hrs by microdilution assay; assay type: functional
Staphylococcus aureus [14] = experiment: Antibacterial activity against wild type Staphylococcus aureus 4717/B assessed as reduction in microbial growth incubated for 24 hrs by microdilution assay; assay type: functional
Staphylococcus aureus [15] = experiment: Antibacterial activity against wild type Staphylococcus aureus 5079/C assessed as reduction in microbial growth incubated for 24 hrs by microdilution assay; assay type: functional
Staphylococcus aureus [16] = experiment: Antibacterial activity against wild type methicillin resistant Staphylococcus aureus 5017/C assessed as reduction in microbial growth incubated for 24 hrs by microdilution assay; assay type: functional
Staphylococcus aureus [17] = experiment: microbe, parasite or virus in culture; conditions: 4862/C, 24 h
Description: Antibacterial activity against wild type Staphylococcus aureus 4862/C assessed as reduction in microbial growth incubated for 24 hrs by microdilution assay

Staphylococcus aureus [18] = experiment: Antibacterial activity against wild type Staphylococcus aureus 4679/B assessed as reduction in microbial growth incubated for 24 hrs by microdilution assay; assay type: functional
Staphylococcus aureus [19] = experiment: Antibacterial activity against […] Staphylococcus aureus 4461/A assessed as reduction in microbial growth incubated for 24 hrs by microdilution assay; assay type: functional
Staphylococcus aureus [20] = experiment: Antibacterial activity against wild type Staphylococcus aureus 4738/B assessed as reduction in microbial growth incubated for 24 hrs by microdilution assay; assay type: functional
Staphylococcus aureus [21] = experiment: Antibacterial activity against wild type Staphylococcus aureus 4788/B assessed as reduction in microbial growth incubated for 24 hrs by microdilution assay; assay type: functional
Staphylococcus aureus [22] = experiment: Antibacterial activity against wild type Staphylococcus aureus 4482/A assessed as reduction in microbial growth incubated for 24 hrs by microdilution assay; assay type: functional
Pseudomonas aeruginosa = experiment: Antibacterial activity against Pseudomonas aeruginosa assessed as reduction in microbial growth measured after 20 cycles by microdilution assay; assay type: functional; conditions: Pseudomonas aeruginosa; time 24 hrs
Staphylococcus aureus [23] = experiment: Antibacterial activity against antibiotic resistant Staphylococcus aureus 4502/A assessed as reduction in microbial growth incubated for 24 hrs by microdilution assay; assay type: functional
Staphylococcus aureus [24] = experiment: Antibacterial activity against wild type Staphylococcus aureus 4968/C assessed as reduction in microbial growth incubated for 24 hrs by microdilution assay; assay type: functional
Staphylococcus aureus [25] = experiment: Antibacterial activity against antibiotic resistant Staphylococcus aureus 4504/A assessed as reduction in microbial growth incubated for 24 hrs by microdilution assay; assay type: functional
Staphylococcus aureus [26] = experiment: Antibacterial activity against wild type Staphylococcus aureus 4561/A assessed as reduction in microbial growth incubated for 24 hrs by microdilution assay; assay type: functional
Staphylococcus aureus [27] = experiment: Antibacterial activity against antibiotic resistant Staphylococcus aureus 4679/B assessed as reduction in microbial growth incubated for 24 hrs by microdilution assay; assay type: functional
Staphylococcus aureus [28] = experiment: Antibacterial activity against antibiotic resistant Staphylococcus aureus 77/CF assessed as reduction in microbial growth incubated for 24 hrs by microdilution assay; assay type: functional
Staphylococcus aureus [29] = experiment: Antibacterial activity against wild type methicillin resistant Staphylococcus aureus 4968/C assessed as reduction in microbial growth incubated for 24 hrs by microdilution assay; assay type: functional
Staphylococcus aureus [30] = experiment: Antibacterial activity against wild type methicillin resistant Staphylococcus aureus 4561/A assessed as reduction in microbial growth incubated for 24 hrs by microdilution assay; assay type: functional
Staphylococcus aureus [31] = experiment: Antibacterial activity against antibiotic resistant Staphylococcus aureus 4740/B assessed as reduction in microbial growth incubated for 24 hrs by microdilution assay; assay type: functional

Compound	MIC (Staphylococcus aureus [1]) [µg/mL]	MIC (Staphylococcus aureus [2]) [µg/mL]	MIC (Staphylococcus aureus [3]) [µg/mL]	MIC (Staphylococcus aureus [4]) [µg/mL]	MIC (Staphylococcus aureus [5]) [µg/mL]	MIC (Staphylococcus aureus [6]) [µg/mL]	MIC (Staphylococcus aureus [7]) [µg/mL]	MIC (Staphylococcus aureus [8]) [µg/mL]	MIC (Staphylococcus aureus [10]) [µg/mL]	MIC (Staphylococcus aureus [11]) [µg/mL]	MIC (Staphylococcus aureus [12]) [µg/mL]	MIC (Staphylococcus aureus [13]) [µg/mL]	MIC (Staphylococcus aureus [14]) [µg/mL]	MIC (Staphylococcus aureus [15]) [µg/mL]	MIC (Staphylococcus aureus [16]) [µg/mL]	MIC (Staphylococcus aureus [17]) [µg/mL]	MIC (Staphylococcus aureus [19]) [µg/mL]	MIC (Staphylococcus aureus [20]) [µg/mL]	MIC (Staphylococcus aureus [21]) [µg/mL]	MIC (Staphylococcus aureus [22]) [µg/mL]	further results
CC1(C)S[C@@H]2[C@H](NC(=O)[C@H](N)c3ccccc3)C(=O)N2[C@H]1C(=O)O [AMPICILLIN]	0.5	0.5	0.5	0.5	0.5	0.5	0.5 (≈ 1.43 µM)	0.5	0.5	0.5	0.5	1	0.5	0.5	> 16	1 (≈ 2.86 µM)	1	0.5	0.5	1	MIC (Staphylococcus aureus [9]): 0.5 µg/mL; MIC (Staphylococcus aureus [18]): 1 µg/mL
CC(C)(O/N=C(\C(=O)N[C@@H]1C(=O)N2C(C(=O)[O-])=C(C[n+]3ccccc3)CS[C@H]12)c1csc(N)n1)C(=O)O [CEFTAZIDIME]	–	–	–	–	–	–	–	–	–	–	–	–	–	–	–	–	–	–	–	–	MIC (Pseudomonas aeruginosa): 128 µg/mL
GENTAMICIN	–	1	0.25	0.25	–	1	–	0.25	0.25	0.25	0.25	0.25	0.25	0.25	–	–	0.25	0.25	0.25	0.25	MIC (Staphylococcus aureus [23]): > 32 µg/mL; MIC (Staphylococcus aureus [24]): 0.25 µg/mL; MIC (Staphylococcus aureus [25]): > 32 µg/mL; MIC (Staphylococcus aureus [26]): 0.25 µg/mL; MIC (Staphylococcus aureus [27]): > 32 µg/mL; MIC (Staphylococcus aureus [28]): > 32 µg/mL
CCC[C@@H]1C[C@@H](C(=O)N[C@@H]([C@H]2O[C@H](SC)[C@H](O)[C@@H](O)[C@H]2O)[C@H](C)Cl)N(C)C1 [CLINDAMYCIN]	0.063	0.063	0.125	0.125	0.125	0.125	0.25 (≈ 0.588 µM)	0.125	0.125	0.125	0.125	0.125	0.125	0.063	> 8	0.125 (≈ 0.294 µM)	0.125	0.125	0.063	0.125	MIC (Staphylococcus aureus [29]): > 8 µg/mL; MIC (Staphylococcus aureus [30]): > 4 µg/mL; MIC (Staphylococcus aureus [18]): 0.125 µg/mL; MIC (Staphylococcus aureus [28]): > 8 µg/mL
CC[C@H]1OC(=O)[C@H](C)[C@@H](O[C@H]2C[C@@](C)(OC)[C@@H](O)[C@H](C)O2)[C@H](C)[C@@H](O[C@@H]2O[C@H](C)C[C@H](N(C)C)[C@H]2O)[C@](C)(O)C[C@@H](C)C(=O)[C@H](C)[C@@H](O)[C@]1(C)O [ERYTHROMYCIN]	0.125	0.125	0.25	0.25	0.25	0.25	0.25 (≈ 0.341 µM)	0.25	0.25	0.25	–	0.25	0.25	0.25	> 16	0.25 (≈ 0.341 µM)	0.25	0.25	0.125	0.25	MIC (Staphylococcus aureus [31]): > 16 µg/mL; MIC (Staphylococcus aureus [29]): > 16 µg/mL; MIC (Staphylococcus aureus [30]): > 4 µg/mL; MIC (Staphylococcus aureus [18]): 0.25 µg/mL; MIC (Staphylococcus aureus [28]): > 16 µg/mL
